Experimental findings from patent publication US3939144A, “Manufacture of N-(benzenesulfonyl)-5-O-desosaminyl-erythromycilamine derivatives” (Pliva, Pharmaceutical and Chemical Works, priority 1974, dated 1976) are described below.

What all share (format): cell-based
Holding throughout (settings): compound alone

One assay relates to E.coli 7920. The assay can be described thus: Preliminary bacteriological tests, MIC, E.coli 7920.
For another assay, the system named is E.coli 8141. The assay can be described thus: Preliminary bacteriological tests, MIC, E.coli 8141.
A further assay deals with Strept.haem. The assay can be described thus: Preliminary bacteriological tests, MIC, Strept.haem.

In brackets after ≈: the same amount, converted by molar mass.

One may read the MIC as the least concentration at which growth counts as inhibited. For `CCC1OC(=O)C(C)C(O)C(C)C(OC2OC(C)CC(N(C)C)C2O)C(C)(O)CC(C)C(NS(=O)(=O)c2ccc(N)cc2)C(C)C(O)C1(C)O` (stereo not drawn) [DEASNH2, N-(4-amino-benzenesulfonyl)-5-0-desosaminyl-erythromycilamine], the MIC in the assay on E.coli 7920 was found to be 125 mg/L (≈ 171 µM); in the assay with E.coli 8141 it was 125 mg/L (≈ 171 µM); in the assay with Strept.haem., 62.2 mg/L (≈ 85 µM).

Consider `CCC1OC(=O)C(C)C(O)C(C)C(OC2OC(C)CC(N(C)C)C2O)C(C)(O)CC(C)C(NS(=O)(=O)c2ccc(Br)cc2)C(C)C(O)C1(C)O` (stereo not drawn) [DEASBr, N-(4-bromo-benzenesulfonyl)-5 -O-desosaminyl-erythromycilamine], for which the MIC in the assay with E.coli 7920 came out at 250 mg/L (≈ 314 µM); with E.coli 8141 it was 500 mg/L (≈ 628 µM); against Strept.haem. it was 62.2 mg/L (≈ 78.2 µM).

For `CCC1OC(=O)C(C)C(O)C(C)C(OC2OC(C)CC(N(C)C)C2O)C(C)(O)CC(C)C(NS(=O)(=O)c2ccc(Cl)cc2)C(C)C(O)C1(C)O` (stereo not drawn) [DEASCl, N-(4-chloro-benzenesulfonyl)-5 -O-desosaminyl-erythromycilamine], the MIC against E.coli 7920 turned out to be 250 mg/L (≈ 333 µM); against E.coli 8141, 250 mg/L (≈ 333 µM); in the assay on Strept.haem. it was 125 mg/L (≈ 166 µM).

For `CCC1OC(=O)C(C)C(O)C(C)C(OC2OC(C)CC(N(C)C)C2O)C(C)(O)CC(C)C(NS(=O)(=O)c2ccc(C)cc2)C(C)C(O)C1(C)O` (stereo not drawn) [DEAST, N-(4-methyl-benzenesulfonyl)-5 -O-desosaminyl-erythromycilamine], the results for the MIC with E.coli 7920, with E.coli 8141 and against Strept.haem. were 125 mg/L (≈ 171 µM), 125 mg/L (≈ 171 µM) and 62.2 mg/L (≈ 85.1 µM), respectively.
